Measured values published in patent publication US20240058321A1, “FARNESYL-TRANSFERASE INHIBITORS AND KRAS INHIBITORS FOR TREATING KRAS MUTANT CANCERS” (SEMMELWEIS EGYETEM, priority 2021, published 2024).
Like-named read-outs stand apart in the source and are kept apart here.

Legend:
cancer patients = conditions: patients, cited from earlier work
SW480 = test: 2D combinational test (SRB growth inhibition, six days); assay type: cell-based, human; conditions: Homo sapiens
Text: (§1) OD values were normalized to control. […] Data shown are results of three independent experiments.

SW1990 = test: as above; assay type: cell-based, human; conditions: Homo sapiens, SW1990, SW1990, read-out: Relative cell viability (MEAN)
Text: as §1

SW1573 xenografts = test: In vivo tumor growth of subcutaneous xenografts; set-up: species or system female SCID mice; conditions: AMG510 25 mg/kg i.p. and/or tipifarnib 40 mg/kg i.p., (day 1 = 1)
Method: (§2) H358 and SW1573 human lung adenocarcinoma cells (5×10^6 and 1×10^6, respectively) were subcutaneously injected in female SCID mice. Cells were injected in 200 μl DMEM:Matrigel mixture (ratio 1:1) based on preliminary experiments. When tumor reached approximately 100 mm^3 (H358 7 days, SW1573 26 days after injection), animals were randomized and treated intraperitoneally daily except for weekends. Drugs were dissolved in 60% DPBS, 34% PEG300, 5% DMSO and 1% Tween80. […] Controls received vehicle. Doses were determined based on previous literature, roughly using half of the used per os doses. The subcutaneous tumors were measured with a caliper and tumor volumes were calculated with the formula […] and expressed in mm^3. H358 experiment was terminated after 18 days and SW1573 after 25 days treatment. Tumors were measured upon harvest, then fixed with 4% PFA for histological analyses.
(§3) Animals were the properties of the Department of Experimental Pharmacology, National Institute of Oncology, H-1122, Budapest, Hungary. All experiments were carried out in accordance with the Guidelines for Animal Experiments and were approved for the Department of Experimental Pharmacology in the National Institute of Oncology, Budapest, Hungary.

H358 xenografts = test: In vivo tumor growth of subcutaneous xenografts; set-up: species or system female SCID mice; conditions: AMG510 5 mg/kg i.p. and/or tipifarnib 40 mg/kg i.p., (day 1 = 1)
Method: as §2, §3

SW1573 [1] = test: siRNA knockdown experiment (SRB, IC50); assay type: cell-based, human; conditions: Homo sapiens, SW1573, 144 h, 6-day-long treatment
Method: Cells were plated in 2500 and 7500 cells/well density (for non-targeting siRNA and HRAS siRNA treatment, respectively) on a 48we11 plate supplemented with pre-mixed Lipofectamine RNAIMAX Reagent (Thermo Fisher) and OptiMEM (Thermo Fisher) containing 2.5 pmol/well non-targeting or HRAS siRNA according to the manufacturer's instruction (reverse transfection protocol). […] On the 3rd day of the treatment, cells were supplemented with fresh pre-mixed 2.5 pmol/well siRNA diluted in Lipofectamine RNAiMAX Reagent and Optimem according to the manufacturer's instruction. […] OD values were normalized to control, and IC50 values were calculated from transformed data using GraphPad PRISM 5 software.

SW1573 [2] = test: 2D combinational test (SRB growth inhibition, six days); conditions: Homo sapiens
Method: (§4) H358, SW1573, H1792, MIAPACA2, SW1990, SNUC2B, SW480, A549 and HCT116 were purchased from ATCC, while SW48 KRAS G12C colorectal cell line and H838 KRAS G12D lung cell line was bought from Horizon Discovery Ltd. Most of the cell lines were heterozygous for mutant KRAS, as in human cases used to occur, but we also used cell lines with homozygous mutant KRAS.
(§5) Cells were cultured in DMEM (Lonza, Switzerland; with 4500 mg/dm3 glucose, pyruvate and L-glutamine) supplemented with 10% fetal calf serum (EuroClone) and 1% penicillin-streptomycin-amphotericin (Lonza) in tissue culture flasks in a humidified 5% CO2 atmosphere at 37° C.
(§6) For in vitro experiments drugs were dissolved in DMSO in 10 mM stock concentration and stored at −80° C.
(§7) Cells that reached 70-80% confluency were trypsinized and counted using Luna II Automated Cell Counter. Cells were plated in 5000-10000 cells/well density (depending on the growth rate of the given cell line) on a 24 well plate. Next day the medium was replaced to fresh medium supplemented with the inhibitors. After 6 days, the wells were washed with DPBS (Lonza) and the cells were fixed by 10% trichloroacetic acid and stained with Sulphorodamine-B (SRB) (Sigma) dye for 15 minutes. Plates then were repeatedly washed with 1% acetic acid to remove excess dye. Protein-bound SRB was then dissolved in 10 mM Tris buffer (pH=7,4) and OD was measured at 570 nm using a microplate reader (EL800, BioTec Instruments, Winooski, VT). OD values were normalized to control. Transformed data then were used to calculate combinational index (CI) values using Compusyn software as described in https://www.combosyn.com/index.html. Data shown are results of three independent experiments.

PF97 = test: as above; conditions: Homo sapiens, 144 h
Method: as §4, §5, §6, §7

MIAPACA2 = test: as above; conditions: Homo sapiens, MIA PaCa-2, 144 h
Method: as §4, §5, §6, §7

[3] = group mean, in g (unit assumed)

With `NC(=O)N1CCC(CC(=O)N2CCC([C@H]3c4ncc(Br)cc4CCc4cc(Cl)cc(Br)c43)CC2)CC1` [lonafarnib] as the compound, how does the Objective responses (cancer patients; colorectal cancer) read?
Its Objective responses is “no objective responses”.

What about the “Progression-free or overall survival” value (cancer patients; ovarian cancer, in combination with chemotherapy) of the same compound?
The value was “does not improve”.

What about the viability at 0.5 µM (SW480; 500 nM lonafarnib + 0 μM BI2852, read-out: Relative cell viability (MEAN)) of the same compound?
The viability at 0.5 µM was 72%.

And the viability at 1 µM (SW480; 1000 nM lonafarnib + 0 μM BI2852, read-out: Relative cell viability (MEAN))?
Its viability at 1 µM is 63.9%.

What about the viability at 2 µM (SW480; 2000 nM lonafarnib + 0 μM BI2852, read-out: Relative cell viability (MEAN)) of the same compound?
The viability at 2 µM was 55.7%.

What about the viability at 0.2 µM (SW1990; 200 nM lonafarnib + 0 nM MRTX1133) of the same compound?
The viability at 0.2 µM was 83.1%.

What about the viability at 1 µM (SW1990; 1000 nM lonafarnib + 0 nM MRTX1133) of the same compound?
Its viability at 1 µM is 64.8%.

And the viability at 2 µM (SW1990; 2000 nM lonafarnib + 0 nM MRTX1133)?
The viability at 2 µM was 57.6%.

Which “Weights of the tumors at the end of the experiment” value (SW1573 xenografts; animal 1, in g (unit assumed)) does the source give for `Cn1cncc1[C@@](N)(c1ccc(Cl)cc1)c1ccc2c(c1)c(-c1cccc(Cl)c1)cc(=O)n2C` [tipifarnib] here?
The value was 0.5323.

What about the “Weights of the tumors at the end of the experiment” value (SW1573 xenografts; animal 2, in g (unit assumed)) of the same compound?
The value was 0.2277.

And the “Weights of the tumors at the end of the experiment” value (SW1573 xenografts; animal 3, in g (unit assumed))?
Its value is 0.3143.

What about the “Weights of the tumors at the end of the experiment” value (SW1573 xenografts; animal 5, in g (unit assumed)) of the same compound?
The value was 0.2239.

And the “Weights of the tumors at the end of the experiment” value (SW1573 xenografts; animal 6, in g (unit assumed))?
Its value is 0.2604.

What about the “Weights of the tumors at the end of the experiment” value (SW1573 xenografts; animal 7, in g (unit assumed)) of the same compound?
Its value is 1.2243.

What about the “Weights of the tumors at the end of the experiment, MEAN” value (SW1573 xenografts; [3]) of the same compound?
Its value is 0.4638.

And the “Weights of the tumors at the end of the experiment” value (H358 xenografts; animal 1, in g (unit assumed))?
The value was 0.182.

What about the “Weights of the tumors at the end of the experiment” value (H358 xenografts; animal 2, in g (unit assumed)) of the same compound?
The value was 1.599.

What about the “Weights of the tumors at the end of the experiment” value (H358 xenografts; animal 3, in g (unit assumed)) of the same compound?
Its value is 1.023.

And the “Weights of the tumors at the end of the experiment” value (H358 xenografts; animal 4, in g (unit assumed))?
Its value is 0.223.

What about the “Weights of the tumors at the end of the experiment” value (H358 xenografts; animal 5, in g (unit assumed)) of the same compound?
The value was 0.225.

And the “Weights of the tumors at the end of the experiment” value (H358 xenografts; animal 6, in g (unit assumed))?
The value was 0.205.

What about the “Weights of the tumors at the end of the experiment” value (H358 xenografts; animal 7, in g (unit assumed)) of the same compound?
The value was 0.239.

What about the “Weights of the tumors at the end of the experiment, MEAN” value (H358 xenografts; [3]) of the same compound?
Its value is 0.528.

What about the viability at 0.1 µM (SW1990; 100 nM tipifarnib + 0 μM BI2852) of the same compound?
Its viability at 0.1 µM is 75.6%.

What about the viability at 0.1 µM (SW1990; 100 nM tipifarnib + 0 nM MRTX1133) of the same compound?
The viability at 0.1 µM was 80.2%.

What about the viability at 0.5 µM (SW1990; 500 nM tipifarnib + 0 μM BI2852) of the same compound?
Its viability at 0.5 µM is 67%.

What about the viability at 0.5 µM (SW1990; 500 nM tipifarnib + 0 nM MRTX1133) of the same compound?
Its viability at 0.5 µM is 70.3%.

What about the viability at 1 µM (SW1990; 1000 nM tipifarnib + 0 μM BI2852) of the same compound?
Its viability at 1 µM is 55%.

What about the viability at 1 µM (SW1990; 1000 nM tipifarnib + 0 nM MRTX1133) of the same compound?
The viability at 1 µM was 63.4%.

And the IC50 (SW1573 [1]; Cont (non-targeting) siRNA)?
Its IC50 is 4.56 nM.

What about the IC50 (SW1573 [1]; HRAS siRNA) of the same compound?
Its IC50 is 10.5 nM.

And the viability at 0.025 µM (SW1573 [2]; SW1573, read-out: Relative cell viability (MEAN), SW1573, 25 nM tipifarnib + 0 μM BI2852)?
Its viability at 0.025 µM is 41.4%.

And the viability at 0.05 µM (SW1573 [2]; SW1573, read-out: Relative cell viability (MEAN), SW1573, 50 nM tipifarnib + 0 μM BI2852)?
Its viability at 0.05 µM is 35.4%.

What about the viability at 0.1 µM (SW1573 [2]; SW1573, read-out: Relative cell viability (MEAN), SW1573, 100 nM tipifarnib + 0 μM BI2852) of the same compound?
The viability at 0.1 µM was 29.2%.

Which viability at 0.025 µM (PF97; read-out: Relative cell viability, 6/A1, 25 nM adagrasib + 0 nM tipifarnib) does the source give for `C=C(F)C(=O)N1CCN(c2nc(OC[C@@H]3CCCN3C)nc3c2CCN(c2cccc4cccc(Cl)c24)C3)C[C@@H]1CC#N` [adagrasib] here?
Its viability at 0.025 µM is 58.2%.

What about the viability at 0.1 µM (PF97; read-out: Relative cell viability, 6/A1, 100 nM adagrasib + 0 nM tipifarnib) of the same compound?
The viability at 0.1 µM was 46.7%.

What about the viability at 0.5 µM (PF97; read-out: Relative cell viability, 6/A1, 500 nM adagrasib + 0 nM tipifarnib) of the same compound?
Its viability at 0.5 µM is 45.9%.

And the viability at 0.01 µM (PF97; read-out: Relative cell viability, 7/A1, 10 nM adagrasib + 0 nM lonafarnib)?
Its viability at 0.01 µM is 52.5%.

And the viability at 0.1 µM (PF97; read-out: Relative cell viability, 7/A1, 100 nM adagrasib + 0 nM lonafarnib)?
The viability at 0.1 µM was 29.2%.

What about the viability at 0.5 µM (PF97; read-out: Relative cell viability, 7/A1, 500 nM adagrasib + 0 nM lonafarnib) of the same compound?
The viability at 0.5 µM was 19.4%.

What about the viability at 0.025 µM (MIAPACA2; read-out: Relative cell viability, 6/A2, 25 nM adagrasib + 0 nM tipifarnib) of the same compound?
Its viability at 0.025 µM is 50.4%.

And the viability at 0.05 µM (MIAPACA2; read-out: Relative cell viability, 6/A2, 50 nM adagrasib + 0 nM tipifarnib)?
The viability at 0.05 µM was 38.3%.

What about the viability at 0.1 µM (MIAPACA2; read-out: Relative cell viability, 6/A2, 100 nM adagrasib + 0 nM tipifarnib) of the same compound?
The viability at 0.1 µM was 28.9%.

And the viability at 0.025 µM (MIAPACA2; read-out: Relative cell viability, 7/A2, 25 nM adagrasib + 0 nM lonafarnib)?
The viability at 0.025 µM was 50.8%.

What about the viability at 0.05 µM (MIAPACA2; read-out: Relative cell viability, 7/A2, 50 nM adagrasib + 0 nM lonafarnib) of the same compound?
The viability at 0.05 µM was 37.5%.

And the viability at 0.1 µM (MIAPACA2; read-out: Relative cell viability, 7/A2, 100 nM adagrasib + 0 nM lonafarnib)?
The viability at 0.1 µM was 27.3%.

What about the viability at 0.01 µM (SW1573 [2]; SW1573, 144 h, read-out: Relative cell viability, 6/A3, SW1573, 10 nM adagrasib + 0 nM tipifarnib, six days) of the same compound?
Its viability at 0.01 µM is 85.3%.

What about the viability at 0.025 µM (SW1573 [2]; SW1573, 144 h, read-out: Relative cell viability, 6/A3, SW1573, 25 nM adagrasib + 0 nM tipifarnib, six days) of the same compound?
The viability at 0.025 µM was 77.3%.

And the viability at 0.1 µM (SW1573 [2]; SW1573, 144 h, read-out: Relative cell viability, 6/A3, SW1573, 100 nM adagrasib + 0 nM tipifarnib, six days)?
The viability at 0.1 µM was 67.2%.

And the viability at 0.01 µM (SW1573 [2]; SW1573, 144 h, read-out: Relative cell viability, 7/A3, SW1573, 10 nM adagrasib + 0 nM lonafarnib, six days)?
The viability at 0.01 µM was 86.6%.

What about the viability at 0.025 µM (SW1573 [2]; SW1573, 144 h, read-out: Relative cell viability, 7/A3, SW1573, 25 nM adagrasib + 0 nM lonafarnib, six days) of the same compound?
The viability at 0.025 µM was 79.4%.

And the viability at 0.1 µM (SW1573 [2]; SW1573, 144 h, read-out: Relative cell viability, 7/A3, SW1573, 100 nM adagrasib + 0 nM lonafarnib, six days)?
Its viability at 0.1 µM is 72.5%.

Which results are given for `C=CC(=O)N1CCN(c2nc(=O)n(-c3c(C)ccnc3C(C)C)c3nc(-c4c(O)cccc4F)c(F)cc23)[C@@H](C)C1` [AMG-510]?
viability at 0.01 µM (SW1573 [2]; SW1573, read-out: Viability data (MEAN), SW1573, BPH1222 0 μM + AMG-510 10 nM): 99.5%; viability at 0.025 µM (SW1573 [2]; SW1573, read-out: Viability data (MEAN), SW1573, BPH1222 0 μM + AMG-510 25 nM): 99.8%; viability at 0.05 µM (SW1573 [2]; SW1573, read-out: Viability data (MEAN), SW1573, BPH1222 0 μM + AMG-510 50 nM): 97.7%; viability at 0.01 µM (SW1573 [2]; SW1573, read-out: Viability data (MEAN), SW1573, SIMVASTATIN 0 μM + AMG-510 10 nM): 96.6%; viability at 0.025 µM (SW1573 [2]; SW1573, read-out: Viability data (MEAN), SW1573, SIMVASTATIN 0 μM + AMG-510 25 nM): 92.5%; viability at 0.05 µM (SW1573 [2]; SW1573, read-out: Viability data (MEAN), SW1573, SIMVASTATIN 0 μM + AMG-510 50 nM): 89.9%
